From ChEMBL document CHEMBL5505972, “Design, synthesis and evaluation of C-5 substituted pyrrolopyridine derivatives as potent Janus Kinase 1 inhibitors with excellent selectivity” (Eur J Med Chem, 2024)

Target: Non-receptor tyrosine-protein kinase TYK2 (Homo sapiens, UniProt P29597)
Sequence (P29597 whole entry): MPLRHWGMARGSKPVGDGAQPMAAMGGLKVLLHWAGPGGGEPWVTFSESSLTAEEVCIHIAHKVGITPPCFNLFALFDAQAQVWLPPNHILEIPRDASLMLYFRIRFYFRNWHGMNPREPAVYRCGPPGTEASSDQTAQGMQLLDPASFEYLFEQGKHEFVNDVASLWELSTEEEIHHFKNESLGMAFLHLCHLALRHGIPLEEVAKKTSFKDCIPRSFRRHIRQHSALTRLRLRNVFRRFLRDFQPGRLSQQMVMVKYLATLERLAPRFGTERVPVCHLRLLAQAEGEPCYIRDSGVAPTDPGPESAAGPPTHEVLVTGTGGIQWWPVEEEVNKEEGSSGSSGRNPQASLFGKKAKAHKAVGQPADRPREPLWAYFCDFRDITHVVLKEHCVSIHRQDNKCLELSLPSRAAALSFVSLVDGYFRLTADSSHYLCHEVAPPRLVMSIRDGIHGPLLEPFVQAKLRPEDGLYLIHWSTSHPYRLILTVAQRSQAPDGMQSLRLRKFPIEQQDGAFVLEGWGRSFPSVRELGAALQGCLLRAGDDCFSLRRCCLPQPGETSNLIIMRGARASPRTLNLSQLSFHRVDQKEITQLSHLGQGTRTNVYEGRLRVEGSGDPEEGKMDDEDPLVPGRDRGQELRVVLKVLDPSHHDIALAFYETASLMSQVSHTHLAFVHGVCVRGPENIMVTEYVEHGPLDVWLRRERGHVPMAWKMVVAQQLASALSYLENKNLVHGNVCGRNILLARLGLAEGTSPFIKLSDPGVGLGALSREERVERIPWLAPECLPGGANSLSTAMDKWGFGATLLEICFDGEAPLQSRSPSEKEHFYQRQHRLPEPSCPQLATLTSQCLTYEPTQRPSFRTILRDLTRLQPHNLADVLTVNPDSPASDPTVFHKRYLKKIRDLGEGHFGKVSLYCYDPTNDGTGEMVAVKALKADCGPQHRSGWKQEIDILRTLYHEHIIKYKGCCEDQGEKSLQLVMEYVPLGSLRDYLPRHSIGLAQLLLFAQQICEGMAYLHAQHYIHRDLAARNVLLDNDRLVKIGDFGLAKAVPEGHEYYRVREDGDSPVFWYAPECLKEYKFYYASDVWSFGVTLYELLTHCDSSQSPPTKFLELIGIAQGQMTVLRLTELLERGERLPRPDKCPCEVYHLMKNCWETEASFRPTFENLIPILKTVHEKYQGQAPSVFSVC
Description: Inhibition of TYK2 (unknown origin) using GFP-STAT1 as substrate incubated for 1 hrs by TR-FRET assay

SMILES | IC50 [µM]
Clc1ccc(CN2CCC(Nc3c(-c4cc[nH]n4)cnc4[nH]ccc34)CC2)cc1 | > 10
N#Cc1ccccc1CN1CCC(Nc2c(-c3cn[nH]c3)cnc3[nH]ccc23)CC1 | 0.0041
COc1cccc(CN2CCC(Nc3c(-c4cc[nH]c4)cnc4[nH]ccc34)CC2)c1 | 0.504
COc1cccc(CN2CCC(Nc3c(-c4cc[nH]n4)cnc4[nH]ccc34)CC2)c1 | > 10
COc1cccc(CN2CCC(Nc3c(-c4cn[nH]c4)cnc4[nH]ccc34)CC2)c1 | > 10
N#Cc1ccc(CN2CCC(Nc3c(-c4cn[nH]c4)cnc4[nH]ccc34)CC2)cc1 | > 10
Clc1cccc(CN2CCC(Nc3c(-c4cn[nH]c4)cnc4[nH]ccc34)CC2)c1 | > 10
N#Cc1cccc(CN2CCC(Nc3c(-c4cn[nH]c4)cnc4[nH]ccc34)CC2)c1 | > 10
Clc1ccc(CN2CCC(Nc3c(-c4cc[nH]c4)cnc4[nH]ccc34)CC2)cc1 | > 10
Clc1ccccc1CN1CCC(Nc2c(-c3cn[nH]c3)cnc3[nH]ccc23)CC1 | > 10
N#Cc1cccc(CN2CCC(Nc3c(-c4cc[nH]c4)cnc4[nH]ccc34)CC2)c1 | > 10
Clc1cccc(CN2CCC(Nc3c(-c4cc[nH]n4)cnc4[nH]ccc34)CC2)c1 | > 10
Clc1ccc(CN2CCC(Nc3c(-c4cn[nH]c4)cnc4[nH]ccc34)CC2)cc1 | > 10
N#Cc1ccc(CN2CCC(Nc3c(-c4cc[nH]c4)cnc4[nH]ccc34)CC2)cc1 | > 10
Clc1cccc(CN2CCC(Nc3c(-c4cc[nH]c4)cnc4[nH]ccc34)CC2)c1 | > 10
Clc1ccccc1CN1CCC(Nc2c(-c3cc[nH]c3)cnc3[nH]ccc23)CC1 | > 10
N#Cc1ccc(CN2CCC(Nc3c(-c4cc[nH]n4)cnc4[nH]ccc34)CC2)cc1 | > 10
N#Cc1ccccc1CN1CCC(Nc2c(-c3cc[nH]n3)cnc3[nH]ccc23)CC1 | 0.0013
N#Cc1cccc(CN2CCC(Nc3c(-c4cc[nH]n4)cnc4[nH]ccc34)CC2)c1 | > 10
N#Cc1ccccc1CN1CCC(Nc2c(-c3cc[nH]c3)cnc3[nH]ccc23)CC1 | 4.15
Clc1ccccc1CN1CCC(Nc2c(-c3cc[nH]n3)cnc3[nH]ccc23)CC1 | > 10
